Assay results published in US11331369B2, “Endoparasitic depsipeptides” (Zoetis Services LLC, priority 2017, dated 2022).

Tested on: microfilariae of Dirofilaria immitis
Experiment: Dirofilaria immitis, Microfilaria (DiMF) In vitro Assay
Assay type: cell-based
Conditions: 72 h, read-out: DiMF Minimum Effective Dose (MED), approximately 72 hours incubation, microfilariae assessed for survival or paralysis

Row | Compound | minimal effective concentration [µM]
1 | CC(C)C[C@H]1C(=O)O[C@H](Cc2ccc(Cn3ccc(-c4ccccc4)n3)cc2)C(=O)N(C)[C@@H](CC(C)C)C(=O)O[C@H](C)C(=O)N(C)[C@@H](CC(C)C)C(=O)O[C@H](Cc2ccccc2)C(=O)N(C)[C@@H](CC(C)C)C(=O)O[C@H](C)C(=O)N1C [Example 2-56, (3S,6R,9S,12R,15S,18R,21S,24R)-6-benzyl-3,9,15,21-tetraisobutyl-4,10,12,16,22,24-hexamethyl-18-(4-((3-phenyl-1H-pyrazol-1-yl)methyl)benzyl)-1,7,13,19-tetraoxa-4,10,16,22-tetraazacyclotetracosan-2,5,8,11,14,17,20,23-octaone] | 0.01 to 0.1
2 | CC(C)C[C@H]1C(=O)O[C@H](Cc2ccc(Cn3ccc(Br)n3)cc2)C(=O)N(C)[C@@H](CC(C)C)C(=O)O[C@H](C)C(=O)N(C)[C@@H](CC(C)C)C(=O)O[C@H](Cc2ccccc2)C(=O)N(C)[C@@H](CC(C)C)C(=O)O[C@H](C)C(=O)N1C [Example 2-57, (3S,6R,9S,12R,15S,18R,21S,24R)-6-benzyl-18-(4-((3-bromo-1H-pyrazol-1-yl)methyl)benzyl)-3,9,15,21-tetraisobutyl-4,10,12,16,22,24-hexamethyl-1,7,13,19-tetraoxa-4,10,16,22-tetraazacyclotetracosan-2,5,8,11,14,17,20,23-octaone] | 0.01 to 0.1
3 | CC(C)C[C@H]1C(=O)O[C@H](Cc2ccc(Cn3ccc(C(F)(F)F)n3)cc2)C(=O)N(C)[C@@H](CC(C)C)C(=O)O[C@H](C)C(=O)N(C)[C@@H](CC(C)C)C(=O)O[C@H](Cc2ccccc2)C(=O)N(C)[C@@H](CC(C)C)C(=O)O[C@H](C)C(=O)N1C [Example 2-58, (3S,6R,9S,12R,15S,18R,21S,24R)-6-benzyl-3,9,15,21-tetraisobutyl-4,10,12,16,22,24-hexamethyl-18-(4-((3-(trifluoromethyl)-1H-pyrazol-1-yl)methyl)benzyl)-1,7,13,19-tetraoxa-4,10,16,22-tetraazacyclotetracosan-2,5,8,11,14,17,20,23-octaone] | 0.01 to 0.1
4 | CC(C)C[C@H]1C(=O)O[C@H](Cc2ccc(Cn3cc(CN)cn3)cc2)C(=O)N(C)[C@@H](CC(C)C)C(=O)O[C@H](C)C(=O)N(C)[C@@H](CC(C)C)C(=O)O[C@H](Cc2ccccc2)C(=O)N(C)[C@@H](CC(C)C)C(=O)O[C@H](C)C(=O)N1C [Example 2-59, (3S,6R,9S,12R,15S,18R,21S,24R)-6-(4-((4-(aminomethyl)-1H-pyrazol-1-yl)methyl)benzyl)-18-benzyl-3,9,15,21-tetraisobutyl-4,10,12,16,22,24-hexamethyl-1,7,13,19-tetraoxa-4,10,16,22-tetraazacyclotetracosan-2,5,8,11,14,17,20,23-octaone] | 0.01 to 0.1
5 | Cc1nn(Cc2ccc(C[C@H]3OC(=O)[C@H](CC(C)C)N(C)C(=O)[C@@H](C)OC(=O)[C@H](CC(C)C)N(C)C(=O)[C@@H](Cc4ccccc4)OC(=O)[C@H](CC(C)C)N(C)C(=O)[C@@H](C)OC(=O)[C@H](CC(C)C)N(C)C3=O)cc2)c(C)c1S(=O)(=O)N1CCCCC1 [Example 2-60, (3S,6R,9S,12R,15S,18R,21S,24R)-6-benzyl-18-(4-((3,5-dimethyl-4-(piperidin-1-ylsulfonyl)-1H-pyrazol-1-yl)methyl)benzyl)-3,9,15,21-tetraisobutyl-4,10,12,16,22,24-hexamethyl-1,7,13,19-tetraoxa-4,10,16,22-tetraazacyclotetracosan-2,5,8,11,14,17,20,23-octaone] | 0.01 to 0.1
6 | CC(C)C[C@H]1C(=O)O[C@H](Cc2ccc(Cn3cc(C4=CCCC4)cn3)cc2)C(=O)N(C)[C@@H](CC(C)C)C(=O)O[C@H](C)C(=O)N(C)[C@@H](CC(C)C)C(=O)O[C@H](Cc2ccccc2)C(=O)N(C)[C@@H](CC(C)C)C(=O)O[C@H](C)C(=O)N1C [Example 2-61, (3S,6R,9S,12R,15S,18R,21S,24R)-6-benzyl-18-(4-((4-(cyclopent-1-en-1-yl)-1H-pyrazol-1-yl)methyl)benzyl)-3,9,15,21-tetraisobutyl-4,10,12,16,22,24-hexamethyl-1,7,13,19-tetraoxa-4,10,16,22-tetraazacyclotetracosan-2,5,8,11,14,17,20,23-octaone] | 0.01 to 0.1
7 | CC(C)C[C@H]1C(=O)O[C@H](Cc2ccc(Cn3nccc3-c3ccccc3)cc2)C(=O)N(C)[C@@H](CC(C)C)C(=O)O[C@H](C)C(=O)N(C)[C@@H](CC(C)C)C(=O)O[C@H](Cc2ccccc2)C(=O)N(C)[C@@H](CC(C)C)C(=O)O[C@H](C)C(=O)N1C [Example 2-67, (3S,6R,9S,12R,15S,18R,21S,24R)-6-benzyl-3,9,15,21-tetraisobutyl-4,10,12,16,22,24-hexamethyl-18-(4-((5-phenyl-1H-pyrazol-1-yl)methyl)benzyl)-1,7,13,19-tetraoxa-4,10,16,22-tetraazacyclotetracosan-2,5,8,11,14,17,20,23-octaone] | 0.01 to 0.1
8 | CC(C)C#Cc1cnn(Cc2ccc(C[C@H]3OC(=O)[C@H](CC(C)C)N(C)C(=O)[C@@H](C)OC(=O)[C@H](CC(C)C)N(C)C(=O)[C@@H](Cc4ccccc4)OC(=O)[C@H](CC(C)C)N(C)C(=O)[C@@H](C)OC(=O)[C@H](CC(C)C)N(C)C3=O)cc2)c1 [Example 2-70, (3S,6R,9S,12R,15S,18R,21S,24R)-6-benzyl-3,9,15,21-tetraisobutyl-4,10,12,16,22,24-hexamethyl-18-(4-((4-(3-methylbut-1-yn-1-yl)-1H-pyrazol-1-yl)methyl)benzyl)-1,7,13,19-tetraoxa-4,10,16,22-tetraazacyclotetracosan-2,5,8,11,14,17,20,23-octaone] | 0.01 to 0.1
9 | CC(C)C[C@H]1C(=O)O[C@H](Cc2ccc(Cn3cc(C#CC(C)(C)C)cn3)cc2)C(=O)N(C)[C@@H](CC(C)C)C(=O)O[C@H](C)C(=O)N(C)[C@@H](CC(C)C)C(=O)O[C@H](Cc2ccccc2)C(=O)N(C)[C@@H](CC(C)C)C(=O)O[C@H](C)C(=O)N1C [Example 2-71, (3S,6R,9S,12R,15S,18R,21S,24R)-6-benzyl-18-(4-((4-(3,3-dimethylbut-1-yn-1-yl)-1H-pyrazol-1-yl)methyl)benzyl)-3,9,15,21-tetraisobutyl-4,10,12,16,22,24-hexamethyl-1,7,13,19-tetraoxa-4,10,16,22-tetraazacyclotetracosan-2,5,8,11,14,17,20,23-octaone] | 0.01 to 0.1
10 | CC(C)C[C@H]1C(=O)O[C@H](Cc2ccc(Cn3ccc(C(C)(C)C)n3)cc2)C(=O)N(C)[C@@H](CC(C)C)C(=O)O[C@H](C)C(=O)N(C)[C@@H](CC(C)C)C(=O)O[C@H](Cc2ccccc2)C(=O)N(C)[C@@H](CC(C)C)C(=O)O[C@H](C)C(=O)N1C [Example 2-72, (3S,6R,9S,12R,15S,18R,21S,24R)-6-benzyl-18-(4-((3-(tert-butyl)-1H-pyrazol-1-yl)methyl)benzyl)-3,9,15,21-tetraisobutyl-4,10,12,16,22,24-hexamethyl-1,7,13,19-tetraoxa-4,10,16,22-tetraazacyclotetracosan-2,5,8,11,14,17,20,23-octaone] | 0.01 to 0.1
11 | CC(C)C[C@H]1C(=O)O[C@H](Cc2ccc(Cn3cc(C#CC4CC4)cn3)cc2)C(=O)N(C)[C@@H](CC(C)C)C(=O)O[C@H](C)C(=O)N(C)[C@@H](CC(C)C)C(=O)O[C@H](Cc2ccccc2)C(=O)N(C)[C@@H](CC(C)C)C(=O)O[C@H](C)C(=O)N1C [Example 2-75, (3S,6R,9S,12R,15S,18R,21S,24R)-6-benzyl-18-(4-((4-(cyclopropylethynyl)-1H-pyrazol-1-yl)methyl)benzyl)-3,9,15,21-tetraisobutyl-4,10,12,16,22,24-hexamethyl-1,7,13,19-tetraoxa-4,10,16,22-tetraazacyclotetracosan-2,5,8,11,14,17,20,23-octaone] | 0.001 to 0.01
12 | Cc1nn(Cc2ccc(C[C@H]3OC(=O)[C@H](CC(C)C)N(C)C(=O)[C@@H](C)OC(=O)[C@H](CC(C)C)N(C)C(=O)[C@@H](Cc4ccccc4)OC(=O)[C@H](CC(C)C)N(C)C(=O)[C@@H](C)OC(=O)[C@H](CC(C)C)N(C)C3=O)cc2)c(C)c1C#N [Example 2-78, 1-(4-(((2R,5S,8R,11S,14R,17S,20R,23S)-14-benzyl-5,11,17,23-tetraisobutyl-4,8,10,16,20,22-hexamethyl-3,6,9,12,15,18,21,24-octaoxo-1,7,13,19-tetraoxa-4,10,16,22-tetraazacyclotetracosan-2-yl)methyl)benzyl)-3,5-dimethyl-1H-pyrazole-4-carbonitrile] | 0.01 to 0.1
13 | Cc1nn(Cc2ccc(C[C@H]3OC(=O)[C@H](CC(C)C)N(C)C(=O)[C@@H](C)OC(=O)[C@H](CC(C)C)N(C)C(=O)[C@@H](Cc4ccccc4)OC(=O)[C@H](CC(C)C)N(C)C(=O)[C@@H](C)OC(=O)[C@H](CC(C)C)N(C)C3=O)cc2)c(C)c1C(F)(F)F [Example 2-81, (3S,6R,9S,12R,15S,18R,21S,24R)-6-benzyl-18-(4-((3,5-dimethyl-4-(trifluoromethyl)-1H-pyrazol-1-yl)methyl)benzyl)-3,9,15,21-tetraisobutyl-4,10,12,16,22,24-hexamethyl-1,7,13,19-tetraoxa-4,10,16,22-tetraazacyclotetracosan-2,5,8,11,14,17,20,23-octaone] | 0.01 to 0.1
14 | CCc1nn(Cc2ccc(C[C@H]3OC(=O)[C@H](CC(C)C)N(C)C(=O)[C@@H](C)OC(=O)[C@H](CC(C)C)N(C)C(=O)[C@@H](Cc4ccccc4)OC(=O)[C@H](CC(C)C)N(C)C(=O)[C@@H](C)OC(=O)[C@H](CC(C)C)N(C)C3=O)cc2)c(CC)c1[N+](=O)[O-] [Example 2-82, (3S,6R,9S,12R,15S,18R,21S,24R)-6-benzyl-18-(4-((3,5-diethyl-4-nitro-1H-pyrazol-1-yl)methyl)benzyl)-3,9,15,21-tetraisobutyl-4,10,12,16,22,24-hexamethyl-1,7,13,19-tetraoxa-4,10,16,22-tetraazacyclotetracosan-2,5,8,11,14,17,20,23-octaone] | 0.01 to 0.1
